Source: ChEMBL document CHEMBL5344477, “Discovery of benzoheterocyclic-substituted amide derivatives as apoptosis signal-regulating kinase 1 (ASK1) inhibitors” (RSC Med Chem, 2024)

assay: Metabolic stability in human liver microsomes assessed as clearance at 1 uM measured upto 90 mins by LC-MS/MS analysis; format: ADME, Microsome; conditions: read-out: CLH

Question: Which CLint scaled at 1 µM does the source give for `CC(C)N1C(=O)COc2cc(F)c(C(=O)Nc3cccc(-c4nncn4C(C)C)n3)cc21` here?
Answer: 31.6 mL/min/kg

Question: Which CLint scaled at 1 µM does the source give for `CC(C)n1cnnc1-c1cccc(NC(=O)c2cc3c(cc2F)C(C)(C)CC(=O)N3C)n1` here?
Answer: 10.7 mL/min/kg

Question: For `CC(C)n1cnnc1-c1cccc(NC(=O)c2cc3c(cc2F)CCC(=O)N3C)n1`, which CLint scaled at 1 µM is on record?
Answer: 7.3 mL/min/kg

Question: Which CLint scaled at 1 µM does the source give for `O=C(Nc1cccc(-c2nncn2CC2CC2)n1)c1cc2c(cc1F)OCc1cncn1-2` here?
Answer: 24.1 mL/min/kg

Question: With `CC(C)n1cnnc1-c1cccc(NC(=O)c2cc3c(cc2F)OCC(=O)N3C)n1` as the compound, how does the CLint scaled at 1 µM read?
Answer: 5.1 mL/min/kg

Question: Which CLint scaled at 1 µM does the source give for `CC(C)n1cnnc1-c1cccc(NC(=O)c2cc3c(cc2F)CCCC(=O)N3)n1` here?
Answer: 3.3 mL/min/kg

assay: Metabolic stability in human liver microsomes assessed as half life at 1 uM measured upto 90 mins by LC-MS/MS analysis; format: ADME, Microsome; conditions: not given

Question: With `CC(C)N1C(=O)COc2cc(F)c(C(=O)Nc3cccc(-c4nncn4C(C)C)n3)cc21` as the compound, how does the half-life at 1 µM read?
Answer: 0.917 h

Question: With `CC(C)n1cnnc1-c1cccc(NC(=O)c2cc3c(cc2F)C(C)(C)CC(=O)N3C)n1` as the compound, how does the half-life at 1 µM read?
Answer: 2.71 h

Question: For `CC(C)n1cnnc1-c1cccc(NC(=O)c2cc3c(cc2F)CCC(=O)N3C)n1`, which half-life at 1 µM is on record?
Answer: 3.95 h

Question: With `O=C(Nc1cccc(-c2nncn2CC2CC2)n1)c1cc2c(cc1F)OCc1cncn1-2` as the compound, how does the half-life at 1 µM read?
Answer: 1.2 h

Question: Which half-life at 1 µM does the source give for `CC(C)n1cnnc1-c1cccc(NC(=O)c2cc3c(cc2F)OCC(=O)N3C)n1` here?
Answer: 5.67 h

Question: With `CC(C)n1cnnc1-c1cccc(NC(=O)c2cc3c(cc2F)CCCC(=O)N3)n1` as the compound, how does the half-life at 1 µM read?
Answer: 8.8 h

assay: Metabolic stability in rat liver microsomes assessed as clearance at 1 uM measured upto 90 mins by LC-MS/MS analysis; format: ADME, Microsome; conditions: read-out: CLH

Question: Which CLint scaled at 1 µM does the source give for `CC(C)N1C(=O)COc2cc(F)c(C(=O)Nc3cccc(-c4nncn4C(C)C)n3)cc21` here?
Answer: 140 mL/min/kg

Question: With `CC(C)n1cnnc1-c1cccc(NC(=O)c2cc3c(cc2F)C(C)(C)CC(=O)N3C)n1` as the compound, how does the CLint scaled at 1 µM read?
Answer: 25.3 mL/min/kg

Question: Which CLint scaled at 1 µM does the source give for `CC(C)n1cnnc1-c1cccc(NC(=O)c2cc3c(cc2F)CCC(=O)N3C)n1` here?
Answer: 34.3 mL/min/kg

Question: Which CLint scaled at 1 µM does the source give for `O=C(Nc1cccc(-c2nncn2CC2CC2)n1)c1cc2c(cc1F)OCc1cncn1-2` here?
Answer: 151 mL/min/kg

Question: Which CLint scaled at 1 µM does the source give for `CC(C)n1cnnc1-c1cccc(NC(=O)c2cc3c(cc2F)OCC(=O)N3C)n1` here?
Answer: 16.8 mL/min/kg

Question: With `CC(C)n1cnnc1-c1cccc(NC(=O)c2cc3c(cc2F)CCCC(=O)N3)n1` as the compound, how does the CLint scaled at 1 µM read?
Answer: 6.6 mL/min/kg

assay: Apparent […] clearance in Sprague-Dawley rat at 1 mg/kg, iv measured upto 24 hrs by LC-MS/MS analysis; format: ADME, organism-based; conditions: in vivo

Question: For `CC(C)n1cnnc1-c1cccc(NC(=O)c2cc3c(cc2F)C(C)(C)CC(=O)N3C)n1`, which CL/F is on record?
Answer: 20.8 mL/min/kg

Question: With `CC(C)n1cnnc1-c1cccc(NC(=O)c2cc3c(cc2F)CCC(=O)N3C)n1` as the compound, how does the CL/F read?
Answer: 24.8 mL/min/kg

Question: Which CL/F does the source give for `O=C(Nc1cccc(-c2nncn2CC2CC2)n1)c1cc2c(cc1F)OCc1cncn1-2` here?
Answer: 23.7 mL/min/kg

Question: With `CC(C)n1cnnc1-c1cccc(NC(=O)c2cc3c(cc2F)OCC(=O)N3C)n1` as the compound, how does the CL/F read?
Answer: 7.5 mL/min/kg

Question: For `CC(C)n1cnnc1-c1cccc(NC(=O)c2cc3c(cc2F)CCCC(=O)N3)n1`, which CL/F is on record?
Answer: 12.8 mL/min/kg

assay: Half life in Sprague-Dawley rat at 5 mg/kg, po measured upto 24 hrs by LC-MS/MS analysis; format: ADME, organism-based; conditions: in vivo

Question: For `CC(C)n1cnnc1-c1cccc(NC(=O)c2cc3c(cc2F)C(C)(C)CC(=O)N3C)n1`, which half-life is on record?
Answer: 5.02 h

Question: For `CC(C)n1cnnc1-c1cccc(NC(=O)c2cc3c(cc2F)CCC(=O)N3C)n1`, which half-life is on record?
Answer: 1.13 h

Question: With `O=C(Nc1cccc(-c2nncn2CC2CC2)n1)c1cc2c(cc1F)OCc1cncn1-2` as the compound, how does the half-life read?
Answer: 1.04 h

Question: With `CC(C)n1cnnc1-c1cccc(NC(=O)c2cc3c(cc2F)OCC(=O)N3C)n1` as the compound, how does the half-life read?
Answer: 2.11 h

Question: With `CC(C)n1cnnc1-c1cccc(NC(=O)c2cc3c(cc2F)CCCC(=O)N3)n1` as the compound, how does the half-life read?
Answer: 1.63 h

assay: Cmax in Sprague-Dawley rat at 1 mg/kg, iv measured upto 24 hrs by LC-MS/MS analysis; format: ADME, organism-based; design: dose 1 mg/kg, time < 24 hrs, route iv; conditions: in vivo

Question: With `CC(C)n1cnnc1-c1cccc(NC(=O)c2cc3c(cc2F)C(C)(C)CC(=O)N3C)n1` as the compound, how does the Cmax read?
Answer: 418 ng/mL

Question: Which Cmax does the source give for `CC(C)n1cnnc1-c1cccc(NC(=O)c2cc3c(cc2F)CCC(=O)N3C)n1` here?
Answer: 594 ng/mL

Question: With `O=C(Nc1cccc(-c2nncn2CC2CC2)n1)c1cc2c(cc1F)OCc1cncn1-2` as the compound, how does the Cmax read?
Answer: 804 ng/mL

Question: For `CC(C)n1cnnc1-c1cccc(NC(=O)c2cc3c(cc2F)OCC(=O)N3C)n1`, which Cmax is on record?
Answer: 779 ng/mL

Question: For `CC(C)n1cnnc1-c1cccc(NC(=O)c2cc3c(cc2F)CCCC(=O)N3)n1`, which Cmax is on record?
Answer: 1070 ng/mL

assay: AUClast in Sprague-Dawley rat at 5 mg/kg, po measured upto 24 hrs by LC-MS/MS analysis; format: ADME, organism-based; design: dose 5 mg/kg, time < 24 hrs, route po; conditions: in vivo

Question: Which AUC(0-t) at 24 h does the source give for `CC(C)n1cnnc1-c1cccc(NC(=O)c2cc3c(cc2F)C(C)(C)CC(=O)N3C)n1` here?
Answer: 3180 ng·h/mL

Question: Which AUC(0-t) at 24 h does the source give for `CC(C)n1cnnc1-c1cccc(NC(=O)c2cc3c(cc2F)CCC(=O)N3C)n1` here?
Answer: 2660 ng·h/mL

Question: For `O=C(Nc1cccc(-c2nncn2CC2CC2)n1)c1cc2c(cc1F)OCc1cncn1-2`, which AUC(0-t) at 24 h is on record?
Answer: 7820 ng·h/mL

Question: For `CC(C)n1cnnc1-c1cccc(NC(=O)c2cc3c(cc2F)OCC(=O)N3C)n1`, which AUC(0-t) at 24 h is on record?
Answer: 10900 ng·h/mL

Question: Which AUC(0-t) at 24 h does the source give for `CC(C)n1cnnc1-c1cccc(NC(=O)c2cc3c(cc2F)CCCC(=O)N3)n1` here?
Answer: 4830 ng·h/mL

assay: Cmax in Sprague-Dawley rat at 5 mg/kg, po measured upto 24 hrs by LC-MS/MS analysis; format: ADME, organism-based; design: dose 5 mg/kg, time < 24 hrs, route po; conditions: in vivo

Question: For `CC(C)n1cnnc1-c1cccc(NC(=O)c2cc3c(cc2F)C(C)(C)CC(=O)N3C)n1`, which Cmax is on record?
Answer: 550 ng/mL

Question: For `CC(C)n1cnnc1-c1cccc(NC(=O)c2cc3c(cc2F)CCC(=O)N3C)n1`, which Cmax is on record?
Answer: 964 ng/mL

Question: With `O=C(Nc1cccc(-c2nncn2CC2CC2)n1)c1cc2c(cc1F)OCc1cncn1-2` as the compound, how does the Cmax read?
Answer: 3520 ng/mL

Question: For `CC(C)n1cnnc1-c1cccc(NC(=O)c2cc3c(cc2F)OCC(=O)N3C)n1`, which Cmax is on record?
Answer: 1830 ng/mL

Question: For `CC(C)n1cnnc1-c1cccc(NC(=O)c2cc3c(cc2F)CCCC(=O)N3)n1`, which Cmax is on record?
Answer: 1270 ng/mL

assay: Half life in Sprague-Dawley rat at 1 mg/kg, iv measured upto 24 hrs by LC-MS/MS analysis; format: ADME, organism-based; conditions: in vivo

Question: Which half-life does the source give for `CC(C)n1cnnc1-c1cccc(NC(=O)c2cc3c(cc2F)C(C)(C)CC(=O)N3C)n1` here?
Answer: 1.12 h

Question: Which half-life does the source give for `CC(C)n1cnnc1-c1cccc(NC(=O)c2cc3c(cc2F)CCC(=O)N3C)n1` here?
Answer: 0.86 h

Question: Which half-life does the source give for `O=C(Nc1cccc(-c2nncn2CC2CC2)n1)c1cc2c(cc1F)OCc1cncn1-2` here?
Answer: 0.75 h

Question: For `CC(C)n1cnnc1-c1cccc(NC(=O)c2cc3c(cc2F)OCC(=O)N3C)n1`, which half-life is on record?
Answer: 1.62 h

Question: With `CC(C)n1cnnc1-c1cccc(NC(=O)c2cc3c(cc2F)CCCC(=O)N3)n1` as the compound, how does the half-life read?
Answer: 1.24 h

assay: Metabolic stability in rat liver microsomes assessed as half life at 1 uM measured upto 90 mins by LC-MS/MS analysis; format: ADME, Microsome; conditions: not given

Question: With `CC(C)N1C(=O)COc2cc(F)c(C(=O)Nc3cccc(-c4nncn4C(C)C)n3)cc21` as the compound, how does the half-life at 1 µM read?
Answer: 0.297 h

Question: Which half-life at 1 µM does the source give for `CC(C)n1cnnc1-c1cccc(NC(=O)c2cc3c(cc2F)C(C)(C)CC(=O)N3C)n1` here?
Answer: 1.64 h

Question: Which half-life at 1 µM does the source give for `CC(C)n1cnnc1-c1cccc(NC(=O)c2cc3c(cc2F)CCC(=O)N3C)n1` here?
Answer: 1.2 h

Question: Which half-life at 1 µM does the source give for `O=C(Nc1cccc(-c2nncn2CC2CC2)n1)c1cc2c(cc1F)OCc1cncn1-2` here?
Answer: 0.275 h

Question: With `CC(C)n1cnnc1-c1cccc(NC(=O)c2cc3c(cc2F)OCC(=O)N3C)n1` as the compound, how does the half-life at 1 µM read?
Answer: 2.46 h

Question: Which half-life at 1 µM does the source give for `CC(C)n1cnnc1-c1cccc(NC(=O)c2cc3c(cc2F)CCCC(=O)N3)n1` here?
Answer: 6.24 h

assay: AUClast in Sprague-Dawley rat at 1 mg/kg, iv measured upto 24 hrs by LC-MS/MS analysis; format: ADME, organism-based; design: dose 1 mg/kg, time < 24 hrs, route iv; conditions: in vivo

Question: Which AUC(0-t) at 24 h does the source give for `CC(C)n1cnnc1-c1cccc(NC(=O)c2cc3c(cc2F)C(C)(C)CC(=O)N3C)n1` here?
Answer: 789 ng·h/mL

Question: For `CC(C)n1cnnc1-c1cccc(NC(=O)c2cc3c(cc2F)CCC(=O)N3C)n1`, which AUC(0-t) at 24 h is on record?
Answer: 668 ng·h/mL

Question: With `O=C(Nc1cccc(-c2nncn2CC2CC2)n1)c1cc2c(cc1F)OCc1cncn1-2` as the compound, how does the AUC(0-t) at 24 h read?
Answer: 706 ng·h/mL

Question: For `CC(C)n1cnnc1-c1cccc(NC(=O)c2cc3c(cc2F)OCC(=O)N3C)n1`, which AUC(0-t) at 24 h is on record?
Answer: 2220 ng·h/mL

Question: For `CC(C)n1cnnc1-c1cccc(NC(=O)c2cc3c(cc2F)CCCC(=O)N3)n1`, which AUC(0-t) at 24 h is on record?
Answer: 1270 ng·h/mL

assay: Oral bioavailability in Sprague-Dawley rat at 5 mg/kg measured upto 24 hrs by LC-MS/MS analysis; format: ADME, organism-based; conditions: in vivo

Question: For `CC(C)n1cnnc1-c1cccc(NC(=O)c2cc3c(cc2F)C(C)(C)CC(=O)N3C)n1`, which bioavailability is on record?
Answer: 89.1%

Question: For `CC(C)n1cnnc1-c1cccc(NC(=O)c2cc3c(cc2F)CCC(=O)N3C)n1`, which bioavailability is on record?
Answer: 80.7%

Question: Which bioavailability does the source give for `CC(C)n1cnnc1-c1cccc(NC(=O)c2cc3c(cc2F)OCC(=O)N3C)n1` here?
Answer: 97.9%

Question: For `CC(C)n1cnnc1-c1cccc(NC(=O)c2cc3c(cc2F)CCCC(=O)N3)n1`, which bioavailability is on record?
Answer: 77.7%

assay: Volume of distribution at steady state in Sprague-Dawley rat at 1 mg/kg, iv measured upto 24 hrs by LC-MS/MS analysis; format: ADME, organism-based; conditions: in vivo, read-out: Vdss

Question: Which Vd does the source give for `CC(C)n1cnnc1-c1cccc(NC(=O)c2cc3c(cc2F)C(C)(C)CC(=O)N3C)n1` here?
Answer: 1.82 L/kg

Question: For `CC(C)n1cnnc1-c1cccc(NC(=O)c2cc3c(cc2F)CCC(=O)N3C)n1`, which Vd is on record?
Answer: 1.32 L/kg

Question: With `O=C(Nc1cccc(-c2nncn2CC2CC2)n1)c1cc2c(cc1F)OCc1cncn1-2` as the compound, how does the Vd read?
Answer: 1.13 L/kg

Question: For `CC(C)n1cnnc1-c1cccc(NC(=O)c2cc3c(cc2F)OCC(=O)N3C)n1`, which Vd is on record?
Answer: 1.49 L/kg

Question: With `CC(C)n1cnnc1-c1cccc(NC(=O)c2cc3c(cc2F)CCCC(=O)N3)n1` as the compound, how does the Vd read?
Answer: 1.07 L/kg
